pEC50: −log10 of the molar value.
Biological target: T1, GPR40 of human origin (Homo sapiens, UniProt O14842)
T1 construct: expressed in transfected cells
Assay: Agonist action on GPR40 of human origin (intracellular Ca2+ change)
Type: cell-based
Details: CHO cell strain stably expressing GPR40 of human origin; change in Ca2+ concentration, fluorescent calcium indicator
Description: Pharmacological Test Example 1: Agonist Action on GPR40 of Human Origin
A CHO cell strain stably expressing GPR40 of human origin was used to determine the agonist action of a subject compound. This cell strain was seeded in a clear bottom 96 well plate at 4×10^4 cells/100 pt/well. The cell strain iswas cultured in a CO2 incubator overnight using a Ham's F-12 medium containing a 10% fetal bovine serum, 100 U/mL penicillin, 0.1 mg/mL streptomycin, and 400 μg/mL Geneticin. Calcium 4 Assay Kit (Molecular Devices) was used as a fluorescent calcium indicator. One mL of 77 mg/mL probenecid (Invitrogen) was added to 100 mL of a calcium indicator solution to prepare a solution (loading solution) mixed with a 20 mM HEPES-containing Hanks' balanced salt solution (HBSS) in equal proportions. To the cells from which the culture solution is removed, 200 μl of the loading solution was added, and the cells were cultured in a CO2 incubator for 1 hour. The subject compound was diluted with a 20 mM HEPES-containing HBSS and was added to the cells by 50 μL, and the change in the Ca^2+ concentration was measured with an intracellular ion analyzer. The EC50 value of the subject compound was calculated using the dose-response curve of fluorescence intensity variation.

T1 sequence (O14842 whole entry): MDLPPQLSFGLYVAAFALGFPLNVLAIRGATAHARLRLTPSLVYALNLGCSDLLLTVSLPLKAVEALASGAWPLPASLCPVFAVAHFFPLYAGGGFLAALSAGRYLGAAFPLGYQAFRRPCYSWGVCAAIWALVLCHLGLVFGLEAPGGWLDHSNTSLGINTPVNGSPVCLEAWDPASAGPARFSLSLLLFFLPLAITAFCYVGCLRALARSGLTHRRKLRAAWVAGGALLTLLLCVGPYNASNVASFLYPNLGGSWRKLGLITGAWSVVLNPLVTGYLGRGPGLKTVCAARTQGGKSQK

| SMILES | pEC50 |
| --- | --- |
| Cc1ccc(-c2cccc3c2CC[C@H]3Oc2ccc(-c3cc(O)n[s+]3[O-])cc2)cn1 (stereo partly drawn) [Example 71, 5-(4-(((R)-4-(6-methylpyridin-3-yl)-2,3-dihydro-1H-inden-1-yl)oxy)phenyl)-3-hydroxyisothiazole 1-oxide] | > 6.52 |
| [O-][s+]1nc(O)cc1-c1ccc(O[C@@H]2CCc3c(-c4cccc5ccccc45)cccc32)cc1 (single isomer, unassigned) [Example 35] | > 6.52 |
| NC(=O)c1ccc(Oc2cccc3c2CC[C@H]3Oc2ccc(-c3cc(O)n[s+]3[O-])cc2)cc1 (stereo partly drawn) [Example 129, 4-(((1R)-1-(4-(3-hydroxy-1-oxidoisothiazol-5-yl)phenoxy)-2,3-dihydro-1H-inden-4-yl)oxy)benzamide] | > 6.52 |
| CC(C)(C)c1ccc(-c2cccc3c2CC[C@H]3Oc2ccc(-c3cc(O)n[s+]3[O-])cc2)cc1 (stereo partly drawn) [Example 33, 5-(4-(((R)-4-(4-tert-butylphenyl)-2,3-dihydro-1H-inden-1-yl)oxy)phenyl)-3-hydroxyisothiazole 1-oxide] | 5.52 to 6.52 |
| N#Cc1ccc(Oc2cccc3c2OCC3Oc2ccc(-c3cc(O)n[s+]3[O-])cc2)cc1 (stereo not drawn) [Example 138, 4-((3-(4-(3-hydroxy-1-oxidoisothiazol-5-yl)phenoxy)-2,3-dihydrobenzofuran-7-yl)oxy)benzonitrile] | > 6.52 |
| CC(=O)c1ccc(-c2cccc3c2CC[C@H]3Oc2ccc(-c3cc(O)n[s+]3[O-])cc2)s1 (stereo partly drawn) [Example 79, 1-(5-((1R)-1-(4-(3-hydroxy-1-oxidoisothiazol-5-yl)phenoxy)-2,3-dihydro-1H-inden-4-yl)thiophen-2-yl)ethanone] | > 6.52 |
| CCOc1ccc(-c2cccc3c2CC[C@H]3Oc2ccc(-c3cc(O)n[s+]3[O-])cc2)cc1Cl (stereo partly drawn) [Example 60, 5-(4-(((R)-4-(3-chloro-4-ethoxyphenyl)-2,3-dihydro-1H-inden-1-yl)oxy)phenyl)-3-hydroxyisothiazole 1-oxide] | > 6.52 |
| CCOCCOc1ccc(Oc2cccc3c2CC[C@H]3Oc2ccc(-c3cc(O)n[s+]3[O-])cc2)c(C)n1 (stereo partly drawn) [Example 102, 5-(4-(((R)-4-((6-(2-ethoxyethoxy)-2-methylpyridin-3-yl)oxy)-2,3-dihydro-1H-inden-1-yl)oxy)phenyl)-3-hydroxyisothiazole 1-oxide] | > 6.52 |
| Cc1cc(F)ccc1-c1cccc2c1CC[C@H]2Oc1ccc(-c2cc(O)n[s+]2[O-])cc1 (stereo partly drawn) [Example 39, 5-(4-(((R)-4-(4-fluoro-2-methylphenyl)-2,3-dihydro-1H-inden-1-yl)oxy)phenyl)-3-hydroxyisothiazole 1-oxide] | > 6.52 |
| [O-][s+]1nc(O)cc1-c1ccc(O[C@@H]2CCc3c(-c4ccc(Cl)cc4)cccc32)cc1 (stereo partly drawn) [Example 6, 5-(4-(((R)-4-(4-chlorophenyl)-2,3-dihydro-1H-inden-1-yl)oxy)phenyl)-3-hydroxyisothiazole 1-oxide] | 5.52 to 6.52 |
| [O-][s+]1nc(O)cc1-c1cccc(OCCc2cccc(Oc3ccccc3)c2)c1 (stereo not drawn) [Example 163, 3-hydroxy-5-(3-(3-phenoxyphenethoxy)phenyl)isothiazole 1-oxide] | 5.52 to 6.52 |
| CS(=O)(=O)c1ccccc1-c1cccc2c1CC[C@H]2Oc1ccc(-c2cc(O)n[s+]2[O-])cc1 (stereo partly drawn) [Example 70, 5-(4-(((R)-4-(2-(methylsulfonyl)phenyl)-2,3-dihydro-1H-inden-1-yl)oxy)phenyl)-3-hydroxyisothiazole 1-oxide] | > 6.52 |
| Cc1cc(OCCC(C)(C)O)cc(C)c1-c1cccc2c1OCC2Oc1ccc(-c2cc(O)n[s+]2[O-])cc1 (single isomer, unassigned) [Example 148-a, 3-hydroxy-5-(4-((7-(4-(3-hydroxy-3-methylbutoxy)-2,6-dimethylphenyl)-2,3-dihydrobenzofuran-3-yl)oxy)phenyl)isothiazole 1-oxide] | > 6.52 |
| [O-][s+]1nc(O)cc1-c1ccc(O[C@@H]2CCc3c(Oc4ccc(N5CCOCC5)nc4)cccc32)cc1 (stereo partly drawn) [Example 109, 3-hydroxy-5-(4-(((R)-4-((6-morpholinopyridin-3-yl)oxy)-2,3-dihydro-1H-inden-1-yl)oxy)phenyl)isothiazole 1-oxide] | > 6.52 |
| CN1CC2(CCN(Cc3ccc(COc4ccc(-c5cc(O)n[s+]5[O-])cc4)cc3)CC2)c2ccccc21 (stereo not drawn) [Example 124, 3-hydroxy-5-(4-((4-((1-methylspiro[indolin-3,4′-piperidin]-1′-yl)methyl)benzyl)oxy)phenyl)isothiazole 1-oxide] | 5.52 to 6.52 |
| Cc1ccc(F)cc1-c1cccc2c1CC[C@H]2Oc1ccc(-c2cc(O)n[s+]2[O-])cc1 (stereo partly drawn) [Example 41, 5-(4-(((R)-4-(5-fluoro-2-methylphenyl)-2,3-dihydro-1H-inden-1-yl)oxy)phenyl)-3-hydroxyisothiazole 1-oxide] | > 6.52 |
| [O-][s+]1nc(O)cc1-c1ccc(OCc2ccc(Oc3ccccc3)cc2)cc1 (stereo not drawn) [Example 159, 3-hydroxy-5-(4-((4-phenoxybenzyl)oxy)phenyl)isothiazole 1-oxide] | > 6.52 |

| SMILES | pEC50 |
| --- | --- |
| CCCc1ccc(-c2cccc3c2CC[C@H]3Oc2ccc(-c3cc(O)n[s+]3[O-])cc2)cc1 (stereo partly drawn) [Example 22, 5-(4-(((R)-4-(4-n-propylphenyl)-2,3-dihydro-1H-inden-1-yl)oxy)phenyl)-3-hydroxyisothiazole 1-oxide] | > 6.52 |
| [O-][s+]1nc(O)cc1-c1ccc(O[C@@H]2CCc3c(Oc4ccc(C(F)(F)F)cc4)cccc32)cc1 (stereo partly drawn) [Example 87, 3-hydroxy-5-(4-(((R)-4-(4-(trifluoromethyl)phenoxy)-2,3-dihydro-1H-inden-1-yl)oxy)phenyl)isothiazole 1-oxide] | > 6.52 |
| CC(C)c1ccc(-c2cccc3c2CC[C@H]3Oc2ccc(-c3cc(O)n[s+]3[O-])cc2)cc1 (single isomer, unassigned) [Example 26] | 5.52 to 6.52 |
| Cc1ccc(C)c(-c2cccc3c2CC[C@H]3Oc2ccc(-c3cc(O)n[s+]3[O-])cc2)c1 (stereo partly drawn) [Example 37, 5-(4-(((R)-4-(2,5-dimethylphenyl)-2,3-dihydro-1H-inden-1-yl)oxy)phenyl)-3-hydroxyisothiazole 1-oxide] | > 6.52 |
| [O-][s+]1nc(O)cc1-c1ccc(O[C@@H]2CCc3c(Oc4cccnc4)cccc32)cc1 (single isomer, unassigned) [Example 85] | > 6.52 |
| Cc1ccccc1-c1cccc2c1CC[C@H]2Oc1ccc(-c2cc(O)n[s+]2[O-])cc1 (stereo partly drawn) [Example 27, 5-(4-(((R)-4-(2-methylphenyl)-2,3-dihydro-1H-inden-1-yl)oxy)phenyl)-3-hydroxyisothiazole 1-oxide] | > 6.52 |
| [O-][s+]1nc(O)cc1-c1ccc(O[C@@H]2CCc3c(-c4cncc(Cl)c4)cccc32)cc1 (stereo partly drawn) [Example 73, 5-(4-(((R)-4-(5-chloropyridin-3-yl)-2,3-dihydro-1H-inden-1-yl)oxy)phenyl)-3-hydroxyisothiazole 1-oxide] | > 6.52 |
| CCOc1cccc(-c2cccc3c2CC[C@H]3Oc2ccc(-c3cc(O)n[s+]3[O-])cc2)c1 (stereo partly drawn) [Example 32, 5-(4-(((R)-4-(3-ethoxyphenyl)-2,3-dihydro-1H-inden-1-yl)oxy)phenyl)-3-hydroxyisothiazole 1-oxide] | 5.52 to 6.52 |
| COc1ncc(Oc2cccc3c2CC[C@H]3Oc2ccc(-c3cc(O)n[s+]3[O-])cc2)cn1 (stereo partly drawn) [Example 110, 3-hydroxy-5-(4-(((R)-4-((2-methoxypyrimidin-5-yl)oxy)-2,3-dihydro-1H-inden-1-yl)oxy)phenyl)isothiazole 1-oxide] | > 6.52 |
| [O-][s+]1nc(O)cc1-c1ccc(O[C@@H]2CCc3c(-c4ccsc4)cccc32)cc1 (stereo partly drawn) [Example 82, 3-hydroxy-5-(4-(((R)-4-(thiophen-3-yl)-2,3-dihydro-1H-inden-1-yl)oxy)phenyl)isothiazole 1-oxide] | > 6.52 |
| NC(=O)c1ccc(-c2cccc3c2CC[C@H]3Oc2ccc(-c3cc(O)n[s+]3[O-])cc2)cn1 (stereo partly drawn) [Example 77, 5-((1R)-1-(4-(3-hydroxy-1-oxidoisothiazole-5-yl)phenoxy)-2,3-dihydro-1H-inden-4-yl)picolinamide] | > 6.52 |
| N#Cc1ccc(Oc2cccc3c2CC[C@H]3Oc2ccc(-c3cc(O)n[s+]3[O-])cc2)cn1 (stereo partly drawn) [Example 119, 5-(((1R)-1-(4-(3-hydroxy-1-oxidoisothiazol-5-yl)phenoxy)-2,3-dihydro-1H-inden-4-yl)oxy)picolinonitrile] | > 6.52 |
| Cc1cc(OCCCS(C)(=O)=O)cc(C)c1-c1cccc(CNc2ccc(-c3cc(O)n[s+]3[O-])cc2)c1 (stereo not drawn) [Example 2, 5-(4-(((2′,6′-dimethyl-4′-(3-(methylsulfonyl)propoxy)-[1,1′-biphenyl]-3-yl)methyl)amino)phenyl)-3-hydroxyisothiazole 1-oxide] | > 6.52 |
| COc1cccc(-c2cccc3c2CC[C@H]3Oc2ccc(-c3cc(O)n[s+]3[O-])cc2)c1F (stereo partly drawn) [Example 59, 5-(4-(((R)-4-(2-fluoro-3-methoxyphenyl)-2,3-dihydro-1H-inden-1-yl)oxy)phenyl)-3-hydroxyisothiazole 1-oxide] | > 6.52 |
| [O-][s+]1nc(O)cc1-c1ccc(O[C@@H]2CCc3c(-c4cccc5c4oc4ccccc45)cccc32)cc1 (single isomer, unassigned) [Example 80] | > 6.52 |
| [O-][s+]1nc(O)cc1-c1ccc(OCC2=CC3(CCCC3)CCC2)cc1 (stereo not drawn) [Example 122, 3-hydroxy-5-(4-(spiro[4.5]dec-6-en-7-ylmethoxy)phenyl)isothiazole 1-oxide] | > 6.52 |
